Source: patent US20240279233A1, “MACROCYCLIC TAK1 INHIBITORS” (Aqilion AB, priority 2021, published 2024)
Values after ≈ are worked out from the molar mass of the structure shown.

Key:
[1] = Solubility assay in phosphate buffer; conditions: phosphate buffer 100 mM, pH 7.4, room temperature, 20-24 h, LC-UV
Protocol: The aqueous solubility of selected example compounds was determined as follows; 6 μL of DMSO stock solution of the selected example was added to 594 μL phosphate buffer (100 mM, pH 7.4). The resulting mixture was equilibrated over night (20-24 h, Alligator Shaker, room temperature). The mixture was then filtered (Millex LH 0.45 μm) and the concentration/solubility was determined by LC-UV quantification.

[2] = target: human recombinant TAK1-TAB1 Kinase (TAK1 (1-303) and TAB1 (437-end)) (Homo sapiens (Human), UniProt O43318); test: TAK1 biochemical ADP-Glo kinase assay; conditions: 10 μM ATP, MBP substrate; read-out: TAK1 Mean IC50 (nM) @ 10 μM ATP
Sequence of human recombinant TAK1-TAB1 Kinase (TAK1 (1-303) and TAB1 (437-end)) (O43318 other isoform, or with tags, fused parts or gaps): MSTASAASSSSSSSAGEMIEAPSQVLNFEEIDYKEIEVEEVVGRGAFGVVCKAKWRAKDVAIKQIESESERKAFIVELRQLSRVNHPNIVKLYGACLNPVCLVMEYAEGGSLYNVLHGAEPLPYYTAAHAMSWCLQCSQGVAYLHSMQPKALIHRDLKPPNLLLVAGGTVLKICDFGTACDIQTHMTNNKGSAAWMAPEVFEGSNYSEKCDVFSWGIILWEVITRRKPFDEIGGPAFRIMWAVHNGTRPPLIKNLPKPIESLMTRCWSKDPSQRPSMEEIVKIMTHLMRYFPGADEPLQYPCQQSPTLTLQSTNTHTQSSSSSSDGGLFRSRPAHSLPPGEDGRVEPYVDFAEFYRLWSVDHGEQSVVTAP
Outline: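 Inhibition of human recombinant TAK1-TAB1 kinase was measured with a Promega ADP-Glo luminescence assay in 384-well plates. Compounds in 5% DMSO were pre-incubated 10 min with 2 μl TAK1-TAB1 (7.5 ng/μl) in buffer of Tris pH 7.5, MgCl2, DTT and BSA. MBP substrate and ATP were then added for 1 hour at room temperature. ADP-Glo reagent and kinase detection substrate followed, luminescence was read on an Envision, and IC50 came from non-linear regression.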

[3] = phosphate buffer, pH 7.4, aqueous buffer, kinetic from dmso stock, Solubility (μM)

solubility [1, 3] | IC50 [2] | solubility [1] | SMILES
0.2 µM (≈ 0.112 µg/mL) | 1 nM | – | CC(C)(C)OC(=O)N1CCN(C(=O)c2ccc3c(c2)nc2n3CCCCCNC(=O)c3cccc(c3)C(=O)N2)CC1 [Example 13, tert-butyl 4-(3,5-dioxo-1^1H-2,6-diaza-1(2,1)-benzo[d]imidazola-4(1,3)-benzenacycloundecaphane-1^5-carbonyl)piperazine-1-carboxylate]
0.3 µM (≈ 0.168 µg/mL) | 11 nM | – | CC(C)(C)OC(=O)N1CCN(C(=O)c2cccc3nc4n(c23)CCCCCNC(=O)c2cccc(c2)C(=O)N4)CC1 [Example 14, tert-butyl 4-(3,5-dioxo-1^1H-2,6-diaza-1(2,1)-benzo[d]imidazola-4(1,3)-benzenacycloundecaphane-1^7-carbonyl)piperazine-1-carboxylate]
90.1 µM (≈ 42.8 µg/mL) | 5 nM | – | CC1CCCCNC(=O)c2cccc(c2)C(=O)Nc2nc3cccc(C(=O)N4CCNCC4)c3n21 (stereo not drawn) [Example 15, 11-methyl-1^7-(piperazine-1-carbonyl)-1^1H-2,6-diaza-1(2,1)-benzo[d]imidazola-4(1,3)-benzenacycloundecaphane-3,5-dione]
78.8 µM (≈ 36.3 µg/mL) | 3 nM | – | O=C1NCCCCCn2c(nc3cc(C(=O)N4CCNCC4)ccc32)NC(=O)c2cccc1c2 [Example 16, 1^5-(piperazine-1-carbonyl)-1^1H-2,6-diaza-1(2,1)-benzo[d]imidazola-4(1,3)-benzenacycloundecaphane-3,5-dione]
93.6 µM (≈ 43.1 µg/mL) | 4 nM | – | O=C1NCCCCCn2c(nc3cccc(C(=O)N4CCNCC4)c32)NC(=O)c2cccc1c2 [Example 17, 1^7-(piperazine-1-carbonyl)-1^1H-2,6-diaza-1(2,1)-benzo[d]imidazola-4(1,3)-benzenacycloundecaphane-3,5-dione]
8.5 µM (≈ 4.39 µg/mL) | 7 nM | – | O=C1/N=C2\Nc3cccc(C(=O)N4CCN(C5COC5)CC4)c3N2CCCCCNC(=O)c2cccc1c2 [Example 19, (E)-1^7-(4-(oxetan-3-yl)piperazine-1-carbonyl)-1^2,1^3-dihydro-1^1H-2,6-diaza-1(2,1)-benzo[d]imidazola-4(1,3)-benzenacycloundecaphane-3,5-dione]
35 µM (≈ 17.1 µg/mL) | 19 nM | – | C[C@@H]1CN(C)CCN1C(=O)c1cccc2c1N1CCCCCNC(=O)c3cccc(c3)C(=O)/N=C/1N2 [Example 20, (R,E)-1^7-(2,4-dimethylpiperazine-1-carbonyl)-1^2,1^3-dihydro-1^1H-2,6-diaza-1(2,1)-benzo[d]imidazola-4(1,3)-benzenacycloundecaphane-3,5-dione]
85.1 µM (≈ 41.6 µg/mL) | 7 nM | – | CN(C)[C@H]1CCN(C(=O)c2cccc3c2N2CCCCCNC(=O)c4cccc(c4)C(=O)/N=C/2N3)C1 [Example 21, (S,E)-1^7-(3-(dimethylamino)pyrrolidine-1-carbonyl)-1^2,1^3-dihydro-1^1H-2,6-diaza-1(2,1)-benzo[d]imidazola-4(1,3)-benzenacycloundecaphane-3,5-dione]
88.5 µM (≈ 43.1 µg/mL) | 9 nM | – | CN1C[C@@H]2C[C@H]1CN2C(=O)c1cccc2c1N1CCCCCNC(=O)c3cccc(c3)C(=O)/N=C/1N2 [Example 22, (E)-1^7-((1S,4S)-5-methyl-2,5-diazabicyclo[2.2.1]heptane-2-carbonyl)-1^2,1^3-dihydro-1^1H-2,6-diaza-1(2,1)-benzo[d]imidazola-4(1,3)-benzenacycloundecaphane-3,5-dione]
83.3 µM (≈ 40.7 µg/mL) | 8 nM | – | CN(C)[C@@H]1CCN(C(=O)c2cccc3c2N2CCCCCNC(=O)c4cccc(c4)C(=O)/N=C/2N3)C1 [Example 23, (R,E)-1^7-(3-(dimethylamino)pyrrolidine-1-carbonyl)-1^2,1^3-dihydro-1^1H-2,6-diaza-1(2,1)-benzo[d]imidazola-4(1,3)-benzenacycloundecaphane-3,5-dione]
26.2 µM (≈ 12.8 µg/mL) | 4 nM | – | C[C@H]1CN(C)CCN1C(=O)c1cccc2c1N1CCCCCNC(=O)c3cccc(c3)C(=O)/N=C/1N2 [Example 24, (S,E)-1^7-(2,4-dimethylpiperazine-1-carbonyl)-1^2,1^3-dihydro-1^1H-2,6-diaza-1(2,1)-benzo[d]imidazola-4(1,3)-benzenacycloundecaphane-3,5-dione]
82 µM (≈ 39.9 µg/mL) | 2 nM | – | CN1C[C@H]2C[C@@H]1CN2C(=O)c1cccc2c1N1CCCCCNC(=O)c3cccc(c3)C(=O)/N=C/1N2 [Example 25, (E)-1^7-((1R,4R)-5-methyl-2,5-diazabicyclo[2.2.1]heptane-2-carbonyl)-1^2,1^3-dihydro-1^1H-2,6-diaza-1(2,1)-benzo[d]imidazola-4(1,3)-benzenacycloundecaphane-3,5-dione]
78.7 µM (≈ 38.5 µg/mL) | 5 nM | – | CN1CCCN(C(=O)c2cccc3c2N2CCCCCNC(=O)c4cccc(c4)C(=O)/N=C/2N3)CC1 [Example 26, (E)-1^7-(4-methyl-1,4-diazepane-1-carbonyl)-1^2,1^3-dihydro-1^1H-2,6-diaza-1(2,1)-benzo[d]imidazola-4(1,3)-benzenacycloundecaphane-3,5-dione]
95 µM (≈ 47.6 µg/mL) | 6 nM | – | C[C@@H]1CCCCNC(=O)c2cccc(c2)C(=O)/N=C2\Nc3cccc(C(=O)N4C[C@H]5C[C@@H]4CN5C)c3N21 [Example 29, (R, E)-11-methyl-1^7-((1R,4R)-5-methyl-2,5-diazabicyclo[2.2.1]heptane-2-carbonyl)-1^2,1^3-dihydro-1^1H-2,6-diaza-1(2,1)-benzo[d]imidazola-4(1,3)-benzenacycloundecaphane-3,5-dione]
95 µM (≈ 47.6 µg/mL) | 8 nM | – | C[C@H]1CCCCNC(=O)c2cccc(c2)C(=O)/N=C2\Nc3cccc(C(=O)N4C[C@H]5C[C@@H]4CN5C)c3N21 [Example 30, (S, E)-11-methyl-1^7-((1R,4R)-5-methyl-2,5-diazabicyclo[2.2.1]heptane-2-carbonyl)-1^2,1^3-dihydro-1^1H-2,6-diaza-1(2,1)-benzo[d]imidazola-4(1,3)-benzenacycloundecaphane-3,5-dione]
16 µM (≈ 7.13 µg/mL) | 4 nM | – | CC1CCCCNC(=O)c2cccc(c2)C(=O)/N=C2\Nc3cccc(C(=O)N4CCC4)c3N21 (stereo not drawn) [Example 43, (E)-1^7-(azetidine-1-carbonyl)-11-methyl-1^2,1^3-dihydro-1^1H-2,6-diaza-1(2,1)-benzo[d]imidazola-4(1,3)-benzenacycloundecaphane-3,5-dione]
26 µM (≈ 11.3 µg/mL) | 223 nM | – | C[C@H]1CCCCn2c(nc3cccc(C(=O)N(C)C)c32)NC(=O)c2cccc(c2)C(=O)N1 [Example 44, (S,E)-N,N,7-trimethyl-3,5-dioxo-1^2,1^3-dihydro-1^1H-2,6-diaza-1(2,1)-benzo[d]imidazola-4(1,3)-benzenacycloundecaphane-1^7-carboxamide]
74 µM (≈ 31 µg/mL) | 4 nM | – | CC(=O)Nc1cccc2c1N1/C(=N/C(=O)c3cccc(c3)C(=O)NCCCCC1C)N2 (stereo not drawn) [Example 45, (E)-N-(11-methyl-3,5-dioxo-1^2,1^3-dihydro-1^1H-2,6-diaza-1(2,1)-benzo[d]imidazola-4(1,3)-benzenacycloundecaphane-1^7-yl)acetamide]
42 µM (≈ 19.4 µg/mL) | 1 nM | – | CC(C)N(C)C(=O)c1cccc2c1N1/C(=N/C(=O)c3cccc(c3)C(=O)NCCCCC1C)N2 (stereo not drawn) [Example 47, (E)-N-isopropyl-N,11-dimethyl-3,5-dioxo-1^2,1^3-dihydro-1^1H-2,6-diaza-1(2,1)-benzo[d]imidazola-4(1,3)-benzenacycloundecaphane-1^7-carboxamide]
– | 1 nM | 24.0 µM (≈ 11.1 µg/mL) | CC(C)N(C)C(=O)c1cccc2c1N1/C(=N/C(=O)c3cccc(c3)C(=O)NCCCCC1C)N2 (stereo not drawn) [Example 48, (E)-N-isopropyl-N,11-dimethyl-3,5-dioxo-1^2,1^3-dihydro-1^1H-2,6-diaza-1(2,1)-benzo[d]imidazola-4(1,3)-benzenacycloundecaphane-1^7-carboxamide]
89 µM (≈ 43.6 µg/mL) | 3 nM | – | COC1(C)CN(C(=O)c2cccc3c2N2/C(=N/C(=O)c4cccc(c4)C(=O)NCCCCC2C)N3)C1 (stereo not drawn) [Example 49, (E)-1^7-(3-methoxy-3-methylazetidine-1-carbonyl)-11-methyl-1^2,1^3-dihydro-1^1H-2,6-diaza-1(2,1)-benzo[d]imidazola-4(1,3)-benzenacycloundecaphane-3,5-dione]
– | 3 nM | 80.0 µM (≈ 39.2 µg/mL) | COC1(C)CN(C(=O)c2cccc3c2N2/C(=N/C(=O)c4cccc(c4)C(=O)NCCCCC2C)N3)C1 (stereo not drawn) [Example 50, (E)-1^7-(3-methoxy-3-methylazetidine-1-carbonyl)-11-methyl-1^2,1^3-dihydro-1^1H-2,6-diaza-1(2,1)-benzo[d]imidazola-4(1,3)-benzenacycloundecaphane-3,5-dione]
– | 6 nM | 74.0 µM (≈ 34.6 µg/mL) | C[C@@H]1CCCCNC(=O)c2cccc(c2)C(=O)Nc2nc3ccc(Cl)c(C(=O)N(C)C)c3n21 [Example 55, (R,E)-1^6-chloro-N,N,11-trimethyl-3,5-dioxo-1^2,1^3-dihydro-1^1H-2,6-diaza-1(2,1)-benzo[d]imidazola-4(1,3)-benzenacycloundecaphane-1^7-carboxamide]
– | 16 nM | 7.1 µM (≈ 3.32 µg/mL) | C[C@@H]1CCCCNC(=O)c2cccc(c2)C(=O)Nc2nc3ccc(Cl)c(C(=O)N(C)C)c3n21 [Example 56, (R,E)-1^6-chloro-N,N,11-trimethyl-3,5-dioxo-1^2,1^3-dihydro-1^1H-2,6-diaza-1(2,1)-benzo[d]imidazola-4(1,3)-benzenacycloundecaphane-1^7-carboxamide]
